# Assay results reported in patent US20250025451A1, “TREATMENT OF CANCER WITH KDM4 INHIBITORS” (Celgene Corporation, priority 2021, published 2025).
# Tests used:
# [1] = test system: T016P patient-derived pancreatic cancer organoid model; assay: organoid colony formation assay, T016P; format: cell-based, human
# Experimental: The IC50 values for Compound 1 inhibition of colony formation and viability were determined for the patient-derived colon cancer organoid models: SU60, T002C, SU62, SU34, SU103, T03SC, and SU106, patient-derived pancreatic cancer organoid models PA016SF, PA0143F, T016P, and T028P, and a patient-derived breast cancer organoid model FS5S3.
# Colony formation and viability assays were performed in multiwell plates seeded with organoids using an in vitro culture system composed of a Matrigel layer, media containing a defined set of growth factors, and co-culture with Wnt3 A-secreting mouse embryonic fibroblasts. Assays were initiated by adding either DMSO as a negative control, or an inhibitor panobinostatat 100×IC50 concentration as a positive control, or serially diluted Compound 1. The cultures were incubated for 168 or 144 hours after which the number of viable organoids in each test well was assessed respectively using one of two detection methods: CTG or staining with calcein-AM followed by imaging and colony counting. Colony count or viability of cells treated with compound 1 was expressed as a percent of the negative control. Aggregated Percent of Control values were plotted against the corresponding Compound 1 concentration and the absolute IC50 value was determined from a non-linear regression curve as the concentration where inhibition was 50% of the control.
# [2] = test system: SU60 patient-derived colorectal cancer xenograft; assay: in vivo efficacy, SU60 patient-derived colorectal cancer xenograft model; details: SU60 CRC PDX; for % TGI: Day 19; for Median Tumor Volumes Diff.: Day 19 minus Day 1
# Experimental: The therapeutic in vivo efficacy of Compound 1 was evaluated in SU60 colorectal cancer, KYSE-150 esophageal cancer, COH70 triple-negative breast cancer, GXA-3036 gastric adenocarcinoma and OCI-LY19 Diffuse Large B-Cell Non-Hodgkin's Lymphoma xenograft models. In all studies, efficacy was determined based on percent tumor growth inhibition (TGI), differences in mean tumor growth, and statistical assessment of differences in net tumor volume distributions on the day of TGI analysis between control and treated animals. Tolerability was assessed based on differences in mean body weights between control and treated animals over the course of the study.
# The in vivo therapeutic efficacy and tolerability of Compound 1, administered orally as the free acid form in a vehicle comprised of 50% polyethylene glycol 400 (PEG 400) and 50% PBS (pH 9), was evaluated in the SU60 CRC PDX model established in female non-obese diabetic/severe combined immunodeficiency (NOD/SCID) gamma (NSG) mice. Each mouse was inoculated subcutaneously in the abdomen with 2×10^6 SU60 tumor cells (0.1 ml) suspended in Matrigel. When the average tumor size reached ˜270 mm3, test animals were randomized into 6 groups consisting of 8 mice per group and treatments were initiated. Control mice received 50% PEG 400 and 50% PBS (pH 9) vehicle PO QD×7. Treated mice received Compound 1 in vehicle PO at 20 or 10 mg/kg QD×7, at 20 mg/kg QOD, at 23 mg/kg 3 on/4 off, or at 14 mg/kg at 5 on/2 off. TGI was determined on Day 19 as (1−Diff treated/Diff control)×100. The difference in mean net tumor volumes on the day of TGI analysis for treated versus control animals was evaluated statistically using one-way analysis of variance (ANOVA) followed by Dunnett's multiple comparisons test. Adjusted p-values are shown where a calculated probability (p)≤0.05 was considered statistically significant. Individual tumors were measured twice weekly in two dimensions using a caliper, and the tumor volumes (TV) in mm3 were calculated using the formula: TV=0.5 (l×w×h), where l, w, and h are the tumor length, width, and height in mm, respectively; Mean tumor volumes±standard error of the mean (SEM) were calculated and plotted versus days of dosing (FIG. 10 left panel). Body weights were measured twice weekly. Body weights±SEM were calculated and plotted versus days of dosing (FIG. 10 right panel).
# [3] = 14 mg/kg (70 weekly) PO 5 on/2 off
# [4] = 23 mg/kg (69 weekly) PO 3 on/4 off
smiles,measurement,setting,value
"CC(C)c1ccc(N(C)c2ccc3c(c2)OCC[C@H]3CNc2cnccc2C(=O)O)cc1 [Compound 1, 3-({[(4R)-7-{methyl[4-(propan-2-yl)phenyl]amino}-3,4-dihydro-2H-1-benzopyran-4-yl]methyl}amino)pyridine-4-carboxylic acid]",IC50,"[1]; Homo sapiens, T016P pancreatic carcinoma model",> 10 µM
same,IC50,"[1]; T016P human pancreatic carcinoma organoid, 144 hrs, Colony Counts",> 10 µM
same,tolerability (mean body weight changes),"[2]; female NSG mice, all regimens, over the course of the study",well-tolerated
same,Median Tumor Volumes Day 19,"[2]; female NSG mice, free acid 10 mg/kg (70 weekly) PO QD x7",1151 mm^3
same,Median Tumor Volumes Day 19,"[2]; female NSG mice, free acid 14 mg/kg (70 weekly) PO 5 on/2 off",1300 mm^3
same,Median Tumor Volumes Day 19,"[2]; female NSG mice, free acid 20 mg/kg (70 weekly) PO QOD",1527 mm^3
same,Median Tumor Volumes Day 19,"[2]; female NSG mice, free acid 20 mg/kg (140 weekly) PO QD x7",767 mm^3
same,Median Tumor Volumes Day 19,"[2]; female NSG mice, free acid 23 mg/kg (69 weekly) PO 3 on/4 off",1121 mm^3
same,% TGI,[2]; 10 mg/kg (70 weekly) PO QD x7,48%
same,Median Tumor Volumes Diff.,[2]; 10 mg/kg (70 weekly) PO QD x7,901 mm^3
same,% TGI,[2]; [3],42%
same,Median Tumor Volumes Diff.,[2]; [3],1019 mm^3
same,% TGI,[2]; 20 mg/kg (70 weekly) PO QOD,29%
same,Median Tumor Volumes Diff.,[2]; 20 mg/kg (70 weekly) PO QOD,1242 mm^3
same,% TGI,[2]; 20 mg/kg (140 weekly) PO QD x7,71%
same,Median Tumor Volumes Diff.,[2]; 20 mg/kg (140 weekly) PO QD x7,506 mm^3
same,% TGI,[2]; [4],52%
same,Median Tumor Volumes Diff.,[2]; [4],833 mm^3
